Measurements published in paper PMC4632357, “Impact of chrysosplenetin on the pharmacokinetics and anti-malarial efficacy of artemisinin against Plasmodium berghei as well as in vitro CYP450 enzymatic activities in rat liver microsome” (Malaria Journal, 2015).

Experiments:
[1] = tested on: CYP2C19; experiment: In vitro rat liver microsome experiment, CYP2C19 (probe OPZ)
[2] = tested on: CYP2C19; experiment: in vitro; settings: rat
[3] = biological target: T1, CYP1A2 (Rattus norvegicus, UniProt P04799); experiment: In vitro rat liver microsome experiment, CYP1A2 (probe PN); type: in vitro ADME
T1 sequence (P04799 1-513): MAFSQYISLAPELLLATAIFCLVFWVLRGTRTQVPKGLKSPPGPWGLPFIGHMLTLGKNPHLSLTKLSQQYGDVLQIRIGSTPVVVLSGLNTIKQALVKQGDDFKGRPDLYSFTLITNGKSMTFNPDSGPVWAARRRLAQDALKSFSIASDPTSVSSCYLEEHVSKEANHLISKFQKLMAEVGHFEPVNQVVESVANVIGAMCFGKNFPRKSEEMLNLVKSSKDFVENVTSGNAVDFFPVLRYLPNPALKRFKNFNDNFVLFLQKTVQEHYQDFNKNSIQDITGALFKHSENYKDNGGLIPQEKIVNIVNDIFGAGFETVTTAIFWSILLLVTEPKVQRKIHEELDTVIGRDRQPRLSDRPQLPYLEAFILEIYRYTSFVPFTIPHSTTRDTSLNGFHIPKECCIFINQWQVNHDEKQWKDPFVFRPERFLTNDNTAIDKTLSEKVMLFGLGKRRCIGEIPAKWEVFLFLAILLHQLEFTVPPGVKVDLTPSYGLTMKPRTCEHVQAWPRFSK

[4] = tested on: CYP2A; experiment: In vitro rat liver microsome experiment, CYP2A (probe CA)
[5] = tested on: P. berghei K173 strain; experiment: In vivo anti-malarial efficacy (chemo-suppressive study) in infected mice; settings: for Parasitemia: placebo 22.15 ± 6.25
[6] = tested on: CYP2D6; experiment: In vitro rat liver microsome experiment, CYP2D6 (probe DM); type: in vitro ADME
Procedure: (§1) Total reaction volume was complemented to 200 μL by PBS. After pre-incubating for 3 min at 37 °C, the reaction was initiated by the addition of NADPH solution (incubation time was optimized as 45 min for PN; 60 min for CA, 15 min for OPZ; 20 min for DM; 90 min for CLZ; 15 min for MDZ). 200 μL ice acetonitrile was added as stop reagent. After a vortex for 3 min and centrifugation for 10 min at 14,000g, an aliquot of 20 μL supernatant was injected into the HPLC system at an interval of 10 min. The amount of methanol in diluted concentrations (<1 %) had no effect on liver microsomes. All the testing groups were in three replicates (n = 3). Under the optimized condition, Vmax, Michaelis constant (Km), enzyme activity (E%), and IC50 values were obtained.

[7] = tested on: CYP3A; experiment: In vitro rat liver microsome experiment, CYP3A (probe MDZ); type: in vitro ADME
Procedure: as §1
Incubation systems including 1.0 mg/mL RLM, PN (12.5, 25.0, and 50.0 μM), NPDPH, and CHR (0, 2, 4, 8 μM) for 1A2 or 0.5 mg/mL RLM, MDZ (2.5, 5.0, 10.0 μM), NPDPH, and CHR (0, 2, 4, 8 μM) for CYP3A were employed as above (n = 3). A serial of Lineweaver–Burk plots by 1/[S] versus 1/V were prepared individually under different concentrations of CHR. The location of intersection point for the linear lines decided the type of inhibition. Namely, if the point lied in Y axis it was competitive inhibition and if it lied in X axis it was non-competitive inhibition. Finally, if the linear lines were paralleled, it was uncompetitive inhibition. Concomitantly, inhibition constant (Ki) was calculated when a second plotting was given by intercepts of the four lines versus [I] (inhibitor concentration).

[8] = biological target: CYP2E1 (Rattus norvegicus, UniProt P05182); experiment: In vitro rat liver microsome experiment, CYP2E1 (probe CLZ); type: in vitro ADME
CYP2E1, sequence (P05182 whole entry): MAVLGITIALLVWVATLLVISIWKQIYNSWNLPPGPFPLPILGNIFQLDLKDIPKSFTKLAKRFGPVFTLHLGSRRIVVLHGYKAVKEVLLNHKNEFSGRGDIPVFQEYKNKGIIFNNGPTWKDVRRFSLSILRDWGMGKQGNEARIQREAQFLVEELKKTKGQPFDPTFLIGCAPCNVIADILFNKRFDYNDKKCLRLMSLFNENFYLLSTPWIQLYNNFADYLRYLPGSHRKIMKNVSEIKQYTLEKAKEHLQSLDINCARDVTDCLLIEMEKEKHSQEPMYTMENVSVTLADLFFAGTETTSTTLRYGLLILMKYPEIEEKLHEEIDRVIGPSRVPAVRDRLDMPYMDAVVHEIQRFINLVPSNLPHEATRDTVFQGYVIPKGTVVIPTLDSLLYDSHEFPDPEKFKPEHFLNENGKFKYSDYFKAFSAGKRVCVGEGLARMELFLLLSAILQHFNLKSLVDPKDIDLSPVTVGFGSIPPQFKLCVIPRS

[9] = Pharmacokinetics of ART in rats in absence and presence of CHR; type: in vivo; settings: ART in rat plasma, ART 5 mg/kg intramuscular on day 3, 1 h after 3-day oral CHR (5, 10, 20 mg/kg for 1:1, 1:2, 1:4) or CMC-Na, n = 5, mean ± SD
Procedure: Male SD rats (200-240 g) were supplied by Laboratory Animal Center of […] Medical University (Grade II, Certificate No. […] Animals were acclimatized in environmentally controlled breeding cages for at least 3 days before being used and were provided with standard laboratory food and water and were fasted for 12 h prior to the study. Water was freely available for rats during experiments. The experimental protocol was approved by the University Ethics Committee. All procedures involving animals were in accordance with the Regulations of the Experimental Animal Administration, State Committee of Science and Technology, People's Republic of China. 20 rats were randomly divided into 4 groups (n = 5). Group A was the control vehicle (ART alone) and group L, M, and H were the combination groups with CHR in three fixed ratios (1:1, 1:2, and 1:4). […] Group A was orally given by 0.5 % CMC-Na solution once per day for 3 days. On day 3, an intramuscular injection of ART (5 mg/kg) was subsequently administered 1 h after CHR or CMC-Na solution pre-exposure. […] Two hours later, animals took food and water freely to replenish. Plasma samples were separated by centrifugation 3500g for 10 min and 200 μL plasmas were stored at -20 °C until analysis. To 100 μL blank plasma, 50 μL ARM working solution (IS, 2 μg/mL), 100 μL methanol aqueous solution (50:50, v/v), and a standard solution or quality control (QC) solution were added. After vortex mixing for 1 min, the sample was extracted with 3 × 3 mL of methyl tert-butyl ether with gentle shaking for 10 min followed by centrifugation at 3500g for 10 min. […] The residue was reconstituted in 100 μL methanol and was filtered through a 0.22 μm nylon filter. Aliquots (10 μL) of the solution were injected onto the LC-MS analysis. Pharmacokinetic parameters were computed from plasma concentration-time profiles of ART by software DAS 3.0.

[10] = design: method as in PMID 17521300, PMID 18064444, PMID 9443848; settings: cited from earlier work
[11] = tested on: CYP2A; experiment: in vitro; settings: rat
[12] = substrate: CCOc1ccc(NC(C)=O)cc1; experiment: cells, lysate or membranes named; settings: other: probe substrate in rat liver microsomes; 37.0 °C
[13] = probe substrate in rat liver microsomes
[14] = moderate: 1 < IC50 < 10 μM, criteria of ref 21
[15] = Lineweaver–Burk plots, rat liver microsomes
[16] = rat liver microsomes, CHR 0–50 μM, P > 0.05

For `COc1ccc2[nH]c([S+]([O-])Cc3ncc(C)c(OC)c3C)nc2c1` (centres unmarked) [OPZ, omeprazole, reference compound], the Vmax [1, 13] was 0.58 nmol/min/mg proteins and the Km at 15 min [2] was 24.1 µM.

For `COc1cc(-c2oc3cc(OC)c(OC)c(O)c3c(=O)c2OC)ccc1O` [CHR, chrysosplenetin], the inhibitor strength class [1, 14] was “moderate inhibitor”, the IC50 at 15 min ([1]; rat, microsomes) was 6.23 µM and the Ki ([3]; 1.0 mg/mL RLM, PN 12.5, 25.0, 50.0 μM, CHR 0, 2, 4, 8 μM, second plot of Lineweaver–Burk intercepts) was 4.07 µM. The inhibition type [3, 15] was “noncompetitive”, the inhibitor strength class [3, 14] was “moderate inhibitor” and the IC50 ([3]; rat liver microsomes, PN 25 μM, GraphPad Prism 5.0) was 4.61 µM. The “impact on enzyme activity” value [4, 16] was “no impact”, the Parasitemia ([5]; CHR alone 5 mg/kg (CHR-L), Kunming mice, n = 10) was 19.74 ± 13.33% and the Parasitemia ([5]; CHR alone 10 mg/kg (CHR-M), Kunming mice, n = 10) was 17.19 ± 5.45%. The Parasitemia ([5]; CHR alone 20 mg/kg (CHR-H), Kunming mice, n = 10) was 18.32 ± 8.86%, the “impact on enzyme activity” value [6, 16] was “no impact” and the inhibition type [7, 15] was “uncompetitive”. For the same molecule, the inhibitor strength class [7, 14] was “moderate inhibitor”, the IC50 at 15 min ([7]; probe midazolam (MDZ) 5 μM, rat liver microsomes, MDZ 5 μM, GraphPad Prism 5.0) was 3.38 µM and the Ki at 15 min ([7]; rat, rat liver microsomes, probe midazolam (MDZ) 2.5, 0.5 mg/mL RLM, MDZ 2.5, 5.0, 10.0 μM, CHR 0, 2, 4, 8 μM, second plot of Lineweaver–Burk intercepts) was 3.71 µM. For the same molecule, the IC50 ([8]; rat liver microsomes, CLZ 15 μM, GraphPad Prism 5.0) was 28.2 µM and the inhibitor strength class ([8]; weak: IC50 >10 μM, criteria of ref 21) was “weak inhibitor”.

With `C[C@@H]1CC[C@H]2[C@@H](C)C(=O)O[C@@H]3O[C@@]4(C)CC[C@@H]1[C@]32OO4` [ART, Artemisinin] the “AUC0–t” value [9] was 390.58 ± 32.46 µg·h/mL, the Cmax ([9]; male) was 51.6 ± 9.47 µg/mL and the half-life ([9]; male) was 3.62 ± 0.86 h. For the same molecule, the clearance ([9]; male, read-out: CLz (converted)) was 0.217 mL/min/kg, the oral bioavailability [10] was 8–10% and the Parasitemia ([5]; Kunming mice, ART 5 mg/kg alone or with CHR 5, 10, 20 mg/kg (1:1, 1:2, 1:4), 3 days, 24 h after last dosing, n = 10) was 13.95 ± 7.89 %. For the same molecule, the “decrease of parasitaemia (%) compared with placebo” value ([5]; mice, P < 0.05) was 1.59 folds and the Inhibition ([5]; relative to placebo, Kunming mice, ART 5 mg/kg alone or with CHR 5, 10, 20 mg/kg, n = 10) was 37.06%.

With `O=c1ccc2ccccc2o1` [CA, coumarin, reference compound] the Km at 60 min [11] was 8.9 µM and the Vmax [4, 13] was 0.12 nmol/min/mg proteins.

In the case of `COc1ccc2c(c1)[C@]13CCCC[C@@H]1[C@H](C2)N(C)CC3` [DM, dextromethophan], the Km [6, 13] is reported as 28.9 µM and the Vmax [6, 13] is reported as 0.20 nmol/min/mg proteins.

For `Cc1ncc2n1-c1ccc(Cl)cc1C(c1ccccc1F)=NC2` [MDZ, Midazolam, reference compound], the Km at 15 min [7, 13] was 7.88 µM and the Vmax [7, 13] was 0.81 nmol/min/mg proteins.

B1: CYP1A2 (Rattus norvegicus) (protein)
chain: T1 sequence (P04799 1-513)
B1 gave a Km [12] of 30.88 µM and a Vmax [12] of 0.14 nmol/min/mg proteins.
